# Laboratory results as given in US20240238425A1, “HSD17B13 Inhibitors and/or Degraders” (Pfizer Inc., priority 2022, published 2024).
# Where a name gives a salt, the structure may show the parent alone.
# System: HiBiT-HSD17β13 fusion protein (N-terminal HiBiT-tagged HSD17β13 isoform D) in Huh7 HiBiT-HSD17β13 OE cells
# Test: Whole-cell Huh7-HSD17B13 HiBiT assay (degrader potency and maximal efficacy, luminescence readout)
# Format: cell-based, human
# Conditions: 24 hour incubation, geometric mean, * = geometric mean for all forms tested (parent and salt forms); for DC50: read-out: Huh7_HIBIT-HSD17β13_DC50 GMean DC50; for Huh7_HIBIT-HSD17β13_DC50 GMean Asymptote Maximum: max. concentration 1 μM
# Method in brief: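 Luminescence from lytic HiBiT detection tracked residual HiBiT-HSD17β13 (isoform D, N-terminal tag) in a stable Huh7 overexpressing clone after 24 h compound treatment at 37° C, 11 concentrations up to 1 μM final. Percent effect used DMSO (zero) and parental Huh7 (high) wells; four-parameter fit gave 50% degradation; viability checked by CellTiter-Glo.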
Structure (SMILES),DC50,Huh7_HIBIT-HSD17β13_DC50 GMean Asymptote Maximum
"O=C1CCN(c2cnn3cc(CCCN4CCO[C@]5(CCN(c6ccc7cn([C@H]8CC[C@H](CNC(=O)c9cc(F)c(O)c(F)c9F)CC8)nc7c6)C5)C4)ccc23)C(=O)N1 (single isomer, unassigned) [Example 30, trifluoroacetate salt]",1.7 nM,74%
"Cc1ccc(C(=O)N2CCN(CCOc3ncc(-c4ccc5cn(C6CCC(CNC(=O)c7cc(F)c(O)c(F)c7F)CC6)nc5c4)cn3)CC2)cc1N1CCC(=O)NC1=O.O=C(O)C(F)(F)F (stereo not shown) [Example 7, N-{[(1r,4r)-4-{6-[2-(2-{4-[3-(2,4-Dioxo-1,3-diazinan-1-yl)-4-methylbenzoyl]piperazin-1-yl}ethoxy)pyrimidin-5-yl]-2H-indazol-2-yl}cyclohexyl]methyl}-2,3,5-trifluoro-4-hydroxybenzamide, trifluoroacetate salt]",3 nM,78* %
"Cl.O=C1CCN(c2cnn3cc(CCCN4CCN(c5cnc(-c6ccc7cn([C@H]8CC[C@H](CNC(=O)c9cc(F)c(O)c(F)c9F)CC8)nc7c6)cn5)CC4)ccc23)C(=O)N1 [Example 10, N-{[(1r,4r)-4-{6-[5-(4-{3-[3-(2,4-Dioxo-1,3-diazinan-1-yl)pyrazolo[1,5-a]pyridin-6-yl]propyl}piperazin-1-yl)pyrazin-2-yl]-2H-indazol-2-yl}cyclohexyl]methyl}-2,3,5-trifluoro-4-hydroxybenzamide, hydrochloride salt]",0.28 nM,82%
"O=C(O)C(F)(F)F.O=C1CCN(c2cnc3cc(CCCN4CCN(c5ncc(-c6ccc7cn(C8CCC(CNC(=O)c9cc(F)c(O)c(F)c9F)CC8)nc7c6)cn5)CC4)ccn23)C(=O)N1 (stereo not shown) [Example 19, N-{[(1r,4r)-4-{6-[2-(4-{3-[3-(2,4-Dioxo-1,3-diazinan-1-yl)imidazo[1,2-a]pyridin-7-yl]propyl}piperazin-1-yl)pyrimidin-5-yl]-2H-indazol-2-yl}cyclohexyl]methyl}-2,3,5-trifluoro-4-hydroxybenzamide, trifluoroacetate salt]",0.73 nM,82%
"Cc1ccc(C(=O)N2CCC(CCCn3cc(-c4ccc5cn([C@H]6CC[C@H](CNC(=O)c7cc(F)c(O)c(F)c7)CC6)nc5c4)cn3)CC2)cc1N1CCC(=O)NC1=O [Example 23, N-{[(1r,4r)-4-{6-[1-(3-{1-[3-(2,4-dioxo-1,3-diazinan-1-yl)-4-methylbenzoyl]piperidin-4-yl}propyl)-1H-pyrazol-4-yl]-2H-indazol-2-yl}cyclohexyl]methyl}-3,5-difluoro-4-hydroxybenzamide]",2.4 nM,75%
"O=C1CCN(c2cnn3cc(CCCN4CC(F)(F)C5(C4)CN(c4ccc6cn([C@H]7CC[C@H](CNC(=O)c8cc(F)c(O)c(F)c8F)CC7)nc6c4)C5)ccc23)C(=O)N1 [Example 29, N-({(1r,4r)-4-[6-(6-{3-[3-(2,4-dioxo-1,3-diazinan-1-yl)pyrazolo[1,5-a]pyridin-6-yl]propyl}-8,8-difluoro-2,6-diazaspiro[3.4]octan-2-yl)-2H-indazol-2-yl]cyclohexyl}methyl)-2,3,5-trifluoro-4-hydroxybenzamide]",1.9 nM,80%
"Cc1ccc(C(=O)N2CCC(CCCN3CCN(c4ccc5cn([C@H]6CC[C@H](CNC(=O)c7cc(F)c(O)c(F)c7F)CC6)nc5c4)CC3)CC2)cc1N1CCC(=O)NC1=O [Example 40, N-{[(1r,4r)-4-{6-[4-(3-{1-[3-(2,4-dioxo-1,3-diazinan-1-yl)-4-methylbenzoyl]piperidin-4-yl}propyl)piperazin-1-yl]-2H-indazol-2-yl}cyclohexyl]methyl}-2,3,5-trifluoro-4-hydroxybenzamide, trifluoroacetate salt]",4.1 nM,74%
"Cc1ccc(C(=O)N2CCC(CN3CCN(c4ncc(-c5ccc6cn([C@H]7CC[C@H](CNC(=O)c8cc(F)c(O)c(F)c8F)CC7)nc6c5)cn4)CC3)CC2)cc1N1CCC(=O)NC1=O [Example 45, N-{[(1r,4r)-4-(6-{2-[4-({1-[3-(2,4-dioxo-1,3-diazinan-1-yl)-4-methylbenzoyl]piperidin-4-yl}methyl)piperazin-1-yl]pyrimidin-5-yl}-2H-indazol-2-yl)cyclohexyl]methyl}-2,3,5-trifluoro-4-hydroxybenzamide, trifluoroacetate salt]",3.1 nM,76%
"Cc1ccc(C(=O)N2CCC(CN3CCN(c4ccc(-c5ccc6cn([C@H]7CC[C@H](CNC(=O)c8cc(F)c(O)c(F)c8F)CC7)nc6c5)nn4)CC3)CC2)cc1N1CCC(=O)NC1=O [Example 49, N-{[(1r,4r)-4-(6-{6-[4-({1-[3-(2,4-dioxo-1,3-diazinan-1-yl)-4-methylbenzoyl]piperidin-4-yl}methyl)piperazin-1-yl]pyridazin-3-yl}-2H-indazol-2-yl)cyclohexyl]methyl}-2,3,5-trifluoro-4-hydroxybenzamide, trifluoroacetate salt]",3.7 nM,82%

# Continued by falling DC50, values first:
DC50,Structure (SMILES),Huh7_HIBIT-HSD17β13_DC50 GMean Asymptote Maximum
6.5 nM,"Cn1c(=O)n(C2CCC(=O)NC2=O)c2ccc(CC(C)(C)CN3CCN(c4nccc(-c5nc([C@]67CC[C@](CNC(=O)c8cc(F)c(O)c(F)c8F)(CC6)CC7)no5)n4)CC3)cc21 (mixture of isomers) [Example 134, N-{[4-(5-{2-[4-(3-{1-[(3RS)-2,6-dioxopiperidin-3-yl]-3-methyl-2-oxo-2,3-dihydro-1H-benzimidazol-5-yl}-2,2-dimethylpropyl)piperazin-1-yl]pyrimidin-4-yl}-1,2,4-oxadiazol-3-yl)bicyclo[2.2.2]octan-1-yl]methyl}-2,3,5-trifluoro-4-hydroxybenzamide, trifluoroacetate salt]",85%
4.3 nM,"O=C1CCN(c2cnc3cc(CCCN4CCN(c5ccc6cn([C@H]7CC[C@H](CNC(=O)c8cc(F)c(O)c(F)c8F)CC7)nc6c5)CC4)ccn23)C(=O)N1 [Example 47, N-({(1r,4r)-4-[6-(4-{3-[3-(2,4-dioxo-1,3-diazinan-1-yl)imidazo[1,2-a]pyridin-7-yl]propyl}piperazin-1-yl)-2H-indazol-2-yl]cyclohexyl}methyl)-2,3,5-trifluoro-4-hydroxybenzamide, trifluoroacetate salt]",78%
3.3 nM,"Cc1ccc(C(=O)N2CCN(CC3CCN(c4ncc(-c5ccc6cn([C@H]7CC[C@H](CNC(=O)c8cc(F)c(O)c(F)c8F)CC7)nc6c5)cn4)CC3)CC2)cc1N1CCC(=O)NC1=O [Example 42, N-{[(1r,4r)-4-(6-{2-[4-({4-[3-(2,4-dioxo-1,3-diazinan-1-yl)-4-methylbenzoyl]piperazin-1-yl}methyl)piperidin-1-yl]pyrimidin-5-yl}-2H-indazol-2-yl)cyclohexyl]methyl}-2,3,5-trifluoro-4-hydroxybenzamide, trifluoroacetate salt]",83%
2.3 nM,"Cc1ccc(C(=O)N2CCC(CCCCN3CCN(c4ccc5cn(C6CCC(CNC(=O)c7cc(F)c(O)c(F)c7F)CC6)nc5c4)CC3)CC2)cc1N1CCC(=O)NC1=O (stereo not shown) [Example 20, N-{[(1r,4r)-4-{6-[4-(4-{1-[3-(2,4-Dioxo-1,3-diazinan-1-yl)-4-methylbenzoyl]piperidin-4-yl}butyl)piperazin-1-yl]-2H-indazol-2-yl}cyclohexyl]methyl}-2,3,5-trifluoro-4-hydroxybenzamide]",78%
1.6 nM,"O=C1CCC(N2Cc3cc(N4CCC(CCN5CCN(c6nccc(-c7nc([C@]89CC[C@](CNC(=O)c%10cc(F)c(O)c(F)c%10F)(CC8)CC9)no7)n6)CC5)CC4)ccc3C2=O)C(=O)N1 (mixture of isomers) [Example 132, N-({4-[5-(2-{4-[2-(1-{2-[(3RS)-2,6-dioxopiperidin-3-yl]-1-oxo-2,3-dihydro-1H-isoindol-5-yl}piperidin-4-yl)ethyl]piperazin-1-yl}pyrimidin-4-yl)-1,2,4-oxadiazol-3-yl]bicyclo[2.2.2]octan-1-yl}methyl)-2,3,5-trifluoro-4-hydroxybenzamide, trifluoroacetate salt]",82%
1.5 nM,"O=C1CCN(c2cnn3cc(CCCN4CCN(c5ccc6cn([C@H]7CC[C@H](CNC(=O)c8cc(F)c(O)c(F)c8F)CC7)nc6c5)CC4)ccc23)C(=O)N1 [Example 48, N-({(1r,4r)-4-[6-(4-{3-[3-(2,4-dioxo-1,3-diazinan-1-yl)pyrazolo[1,5-a]pyridin-6-yl]propyl}piperazin-1-yl)-2H-indazol-2-yl]cyclohexyl}methyl)-2,3,5-trifluoro-4-hydroxybenzamide, trifluoroacetate salt]",74%
0.94 nM,"Cc1ccc(C(=O)N2CCC3(CC2)CC(N2CCN(c4ncc(-c5ccc6cn(C7CCC(CNC(=O)c8cc(F)c(O)c(F)c8F)CC7)nc6c5)cn4)CC2)CO3)cc1N1CCC(=O)NC1=O (stereo not shown) [Example 11, N-{[(1r,4r)-4-{6-[2-(4-{8-[3-(2,4-Dioxo-1,3-diazinan-1-yl)-4-methylbenzoyl]-1-oxa-8-azaspiro[4.5]decan-3-yl}piperazin-1-yl)pyrimidin-5-yl]-2H-indazol-2-yl}cyclohexyl]methyl}-2,3,5-trifluoro-4-hydroxybenzamide]",81%
0.59 nM,"O=C1CCN(c2cnn3cc(CCCN4CCOC5(CCN(c6ccc7cn([C@H]8CC[C@H](CNC(=O)c9cc(F)c(O)c(F)c9F)CC8)nc7c6)CC5)C4)ccc23)C(=O)N1 [Example 28, N-({(1r,4r)-4-[6-(4-{3-[3-(2,4-dioxo-1,3-diazinan-1-yl)pyrazolo[1,5-a]pyridin-6-yl]propyl}-1-oxa-4,9-diazaspiro[5.5]undecan-9-yl)-2H-indazol-2-yl]cyclohexyl}methyl)-2,3,5-trifluoro-4-hydroxybenzamide]",90%
